Reference: paper PMC12448936, “Odorant Receptors Mediating Avoidance of Toxic Mustard Oils in Drosophila melanogaster Are Expanded in Herbivorous Relatives” (Molecular Biology and Evolution, 2025)
Where two headings read alike, the source gives them in different places.

Columns and labels:
[1] = biological target: T1, S. flava Or42a3 (Scaptomyza flava, UniProt Z9ZJ76RJY6); assay: single sensillum recording, at1 empty neuron; assay type: cell-based
T1 construct: full coding region (UTRs removed) in UAST-attB, attP40 site; D. melanogaster at1 OSNs (Or67d null), host Orco; with Odorant receptor coreceptor (Drosophila melanogaster, endogenous in host neuron)
T1 sequence (Z9ZJ76RJY6 1-407): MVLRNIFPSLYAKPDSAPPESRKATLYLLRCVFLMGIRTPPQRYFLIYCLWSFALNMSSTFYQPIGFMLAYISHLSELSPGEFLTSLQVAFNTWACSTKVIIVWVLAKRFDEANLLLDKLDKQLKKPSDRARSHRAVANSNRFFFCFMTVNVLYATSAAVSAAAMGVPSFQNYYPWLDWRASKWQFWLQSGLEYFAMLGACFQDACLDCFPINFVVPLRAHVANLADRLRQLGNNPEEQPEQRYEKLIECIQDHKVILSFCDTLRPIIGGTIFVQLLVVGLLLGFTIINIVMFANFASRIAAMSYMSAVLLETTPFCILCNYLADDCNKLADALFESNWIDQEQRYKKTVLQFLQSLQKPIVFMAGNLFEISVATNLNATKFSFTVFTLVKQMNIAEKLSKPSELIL
T1 sequence (Q9VNB5 1-486 partner): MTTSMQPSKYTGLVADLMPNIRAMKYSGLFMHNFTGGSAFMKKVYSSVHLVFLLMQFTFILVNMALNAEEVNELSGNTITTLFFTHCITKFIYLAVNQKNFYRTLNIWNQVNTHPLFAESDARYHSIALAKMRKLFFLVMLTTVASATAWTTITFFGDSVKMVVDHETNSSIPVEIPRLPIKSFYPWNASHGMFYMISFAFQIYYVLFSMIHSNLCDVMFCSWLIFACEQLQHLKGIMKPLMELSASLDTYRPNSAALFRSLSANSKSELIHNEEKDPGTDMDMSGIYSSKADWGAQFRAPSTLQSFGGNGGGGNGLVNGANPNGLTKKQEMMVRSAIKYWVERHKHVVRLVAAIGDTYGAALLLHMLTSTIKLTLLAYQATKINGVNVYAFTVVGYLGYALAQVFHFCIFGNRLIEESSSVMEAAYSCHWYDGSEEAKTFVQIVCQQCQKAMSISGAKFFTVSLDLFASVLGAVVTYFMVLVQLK

[2] = biological target: T2, S. flava Or42a2 (Scaptomyza flava, UniProt Z9B9G2NIU8); assay: single sensillum recording, at1 empty neuron; assay type: cell-based; details: volatile stimulus 1:100 vol/vol in mineral oil
T2 construct: full coding region (UTRs removed) in UAST-attB, attP40 site; D. melanogaster at1 OSNs (Or67d null), host Orco; with Odorant receptor coreceptor (Drosophila melanogaster, endogenous in host neuron)
T2 sequence (Z9B9G2NIU8 1-404): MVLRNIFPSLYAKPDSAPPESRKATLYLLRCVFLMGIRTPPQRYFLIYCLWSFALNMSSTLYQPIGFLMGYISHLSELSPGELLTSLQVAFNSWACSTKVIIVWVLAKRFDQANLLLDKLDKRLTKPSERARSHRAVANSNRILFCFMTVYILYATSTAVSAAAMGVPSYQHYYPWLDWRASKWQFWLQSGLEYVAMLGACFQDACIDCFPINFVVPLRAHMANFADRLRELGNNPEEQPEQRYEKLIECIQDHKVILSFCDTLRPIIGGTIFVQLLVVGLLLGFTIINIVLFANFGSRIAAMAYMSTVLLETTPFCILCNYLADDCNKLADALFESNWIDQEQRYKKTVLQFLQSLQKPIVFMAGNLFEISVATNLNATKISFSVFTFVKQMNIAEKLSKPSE
T2 sequence (Q9VNB5 1-486 partner): T1 sequence (Q9VNB5 1-486 partner)

[3] = biological target: T3, S. pallida Or42a2 (Scaptomyza pallida, UniProt Z9QWX1R862); assay: single sensillum recording, at1 empty neuron; assay type: cell-based; details: bound given for three odorants together
T3 construct: full coding region in UAST-attB, attP40 site; D. melanogaster at1 OSNs (Or67d null), host Orco; with Odorant receptor coreceptor (Drosophila melanogaster, endogenous in host neuron)
T3 sequence (Z9QWX1R862 1-406): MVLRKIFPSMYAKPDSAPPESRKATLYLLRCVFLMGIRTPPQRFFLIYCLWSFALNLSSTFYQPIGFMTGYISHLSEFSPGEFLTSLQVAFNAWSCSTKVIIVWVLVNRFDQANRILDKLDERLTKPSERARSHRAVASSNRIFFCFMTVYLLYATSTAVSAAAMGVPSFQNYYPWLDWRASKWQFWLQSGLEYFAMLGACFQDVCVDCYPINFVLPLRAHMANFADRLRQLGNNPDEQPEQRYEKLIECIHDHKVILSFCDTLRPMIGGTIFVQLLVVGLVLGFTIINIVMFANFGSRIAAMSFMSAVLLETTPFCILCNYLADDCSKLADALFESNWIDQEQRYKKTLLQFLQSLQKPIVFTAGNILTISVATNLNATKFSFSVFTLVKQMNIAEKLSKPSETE
T3 sequence (Q9VNB5 1-486 partner): T1 sequence (Q9VNB5 1-486 partner)

[4] = biological target: T4, S. flava Or42a4 (Scaptomyza flava, UniProt Z9LG74I6Y6); assay: single sensillum recording, at1 empty neuron; assay type: cell-based
T4 construct: full coding region (UTRs removed) in UAST-attB, attP40 site; D. melanogaster at1 OSNs (Or67d null), host Orco; with Odorant receptor coreceptor (Drosophila melanogaster, endogenous in host neuron)
T4 sequence (Z9LG74I6Y6 1-404): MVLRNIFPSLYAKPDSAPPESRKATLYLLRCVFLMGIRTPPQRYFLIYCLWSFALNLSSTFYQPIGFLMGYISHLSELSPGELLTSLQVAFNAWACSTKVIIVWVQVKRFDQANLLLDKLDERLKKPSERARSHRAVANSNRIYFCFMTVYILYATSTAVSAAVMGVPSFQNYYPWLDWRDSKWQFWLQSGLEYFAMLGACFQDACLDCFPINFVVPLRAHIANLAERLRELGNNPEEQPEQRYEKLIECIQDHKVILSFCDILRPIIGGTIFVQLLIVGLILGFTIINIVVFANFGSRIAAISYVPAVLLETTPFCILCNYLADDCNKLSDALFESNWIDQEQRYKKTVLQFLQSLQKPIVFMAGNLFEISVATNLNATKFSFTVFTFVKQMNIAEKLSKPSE
T4 sequence (Q9VNB5 1-486 partner): T1 sequence (Q9VNB5 1-486 partner)

[5] = biological target: T5, D. melanogaster Or42a (Drosophila melanogaster, UniProt Q9V9I2); assay: single sensillum recording, at1 empty neuron; assay type: cell-based; details: bound given for three odorants together
T5 construct: full length UAS transgene in D. melanogaster at1 OSNs (Or67d-Gal4 null background), endogenous Orco; EC50 from native pb1a OSNs; with Odorant receptor coreceptor (Drosophila melanogaster)
T5 sequence (Q9V9I2 1-406): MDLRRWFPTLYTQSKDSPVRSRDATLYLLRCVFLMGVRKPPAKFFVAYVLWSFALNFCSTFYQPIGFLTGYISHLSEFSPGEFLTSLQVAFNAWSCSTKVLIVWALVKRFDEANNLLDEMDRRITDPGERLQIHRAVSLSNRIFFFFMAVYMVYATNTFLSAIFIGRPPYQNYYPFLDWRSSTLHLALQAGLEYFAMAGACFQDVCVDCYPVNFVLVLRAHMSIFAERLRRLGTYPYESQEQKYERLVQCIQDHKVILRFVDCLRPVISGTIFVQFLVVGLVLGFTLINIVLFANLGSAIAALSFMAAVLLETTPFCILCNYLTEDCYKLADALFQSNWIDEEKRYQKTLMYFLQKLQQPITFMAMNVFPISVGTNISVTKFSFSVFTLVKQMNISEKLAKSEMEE
T5 sequence (Q9VNB5 1-486 partner): T1 sequence (Q9VNB5 1-486 partner)

[6] = system: S. flava Or42a3; details: heterozygous UAS transgene, Fig. 8 legend prints S301P
[7] = volatile stimulus 1:100 vol/vol in mineral oil
[8] = volatile stimulus 1:100 vol/vol in DMSO

In the case of `C=CCN=C=S` [AITC, allyl isothiocyanate], the spikes/s [1, 7] is reported as “S. flava Or42a3 or S. flava Or42a4 were also very sensitive to AITC and trans-2-hexenal”, the spikes/s [2] is reported as “S. flava Or42a2 was only activated by AITC” and the spikes/s [3, 7] is reported as greater than 96 spikes/s. The spikes/s [4, 7] was “S. flava Or42a3 or S. flava Or42a4 were also very sensitive to AITC and trans-2-hexenal” and the spikes/s [5, 7] was greater than 79 spikes/s.

In the case of `CCC/C=C/C=O` [trans-2-hexenal], the spikes/s [1, 7] is reported as “S. flava Or42a3 or S. flava Or42a4 were also very sensitive to AITC and trans-2-hexenal”, the spikes/s [3, 7] is reported as greater than 96 spikes/s and the spikes/s [4, 7] is reported as “S. flava Or42a3 or S. flava Or42a4 were also very sensitive to AITC and trans-2-hexenal”. For the same molecule, the spikes/s [5, 7] was greater than 79 spikes/s.

With `CCC1CCC(=O)O1` (stereo not drawn) [γ-hexalactone] the spikes/s [1, 8] was “S. flava Or42a3 showed a moderate response to γ-hexalactone”, the spikes/s [3, 8] was greater than 96 spikes/s and the spikes/s [4, 8] was less than 10 spikes/s. For the same molecule, the spikes/s [5, 8] was greater than 79 spikes/s and the spikes/s [6, 8] was “at1 population responses to BITC (white bars) and to γ-hexalactone (gray bars)”.

In the case of `CCCCN=C=S` [BITC, butyl ITC], the spikes/s [6, 7] is reported as “The A181D S307P variant and the two S. flava paralogs showed similar moderate responses to BITC”.
